The source of these data is patent US5210193A, “Piperazine derivatives” (American Cyanamid Company, priority 1990, dated 1993).

What is called MIC is the lowest concentration that inhibits growth of the organism.

Holding throughout (assay): in vitro antibacterial MIC, agar plate dilution
Holding throughout (format): cell-based

One experiment relates to Citrobacter div. K 82-24. Particulars: Citrobacter, DIV.K8224, 18 h, 35° C., read-out: MIC. An outline of the steps:
(§1)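 Agar plate dilution on Mueller-Hinton agar, inoculum approximately 10^4 CFU per organism applied with a Steers replicator. MIC (mcg/ml) is the lowest compound concentration inhibiting visible growth after 18 hours at 35° C.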

The subject of experiment [1] is Escherichia coli MOR 84-20. The note with it: Escherichia coli, MOR8420, 18 h, 35° C., read-out: MIC. A digest of the protocol:
as §1

For experiment [2], the system named is Klebsiella pneumoniae IO 83-5. Particulars: Klebsiella pneumoniae, IO835, 18 h, 35° C., read-out: MIC. An outline of the steps: as §1
Experiment [3] has as its system Morganella morganii CMC 84-38. The note with it: Morganella morganii, CMC8438, 18 h, 35° C., read-out: MIC. A digest of the protocol: as §1
Experiment [4] concerns Pseudomonas aeruginosa LL-1244. Particulars: Pseudomonas aeruginosa, LL1244, 18 h, 35° C., read-out: MIC. A digest of the protocol: as §1
The test system of experiment [5] is Staphylococcus aureus CMC 83-131. Particulars: Staphylococcus aureus, CMC83131, 18 h, 35° C., read-out: MIC. A digest of the protocol: as §1
In experiment [6] the test system is Staphylococcus aureus Smith. The note with it: Staphylococcus aureus, 18 h, 35° C., read-out: MIC. A digest of the protocol:
as §1

The subject of experiment [7] is Streptococcus faecalis VGH 84-65. The note with it: Enterococcus faecalis, VGH8465, 18 h, 35° C., read-out: MIC. An outline of the steps:
as §1

The test system of experiment [8] is Escherichia coli ATCC 25922. The note with it: 35° C. A digest of the protocol:
as §1

Experiment [9] concerns Serratia marcescens IO 83-63. The note with it: IO8363, 18 hours, 35° C. A digest of the protocol:
as §1

Where [10] appears, read: Escherichia coli, ATCC25922, 18 h, read-out: MIC.

Structures are written as SMILES. Values after ≈ are worked out from the molar mass of the structure shown. Where two headings read alike, the source gives them in different places.

`O=C(O)c1cn(C2CC2)c2cc(N3CCNC(c4cc[nH]n4)C3)c(F)cc2c1=O` (centres unmarked) [Example 121, 1-Cyclopropyl-6-fluoro-1,4-dihydro-4-oxo-7-[3-(1H-pyrazol-3-yl)-1-piperazinyl]-3-quinolinecarboxylic acid]: the MIC stood at 0.25 µg/mL (≈ 0.629 µM) in the experiment with Citrobacter div. K 82-24; 0.25 µg/mL (≈ 0.629 µM) in experiment [1]; 1 µg/mL (≈ 2.52 µM) in experiment [2]; 0.5 µg/mL (≈ 1.26 µM) in [3]; 16 µg/mL (≈ 40.3 µM) in experiment [4]; 2 µg/mL (≈ 5.03 µM) in [5]. The MIC in [6] turned out to be 0.12 µg/mL (≈ 0.302 µM); in [7] it was 2 µg/mL (≈ 5.03 µM).

As for `CN1CCN(c2cc3c(cc2F)c(=O)c(C(=O)O)cn3C2CC2)CC1C1CC1` (centres unmarked) [Example 125, 1-Cyclopropyl-7-(3-cyclopropyl-4-methyl-1-piperazinyl) -6-fluoro-1,4-dihydro-4-oxo-3-quinolinecarboxylic acid], the MIC with Citrobacter div. K 82-24 worked out at 0.25 µg/mL (≈ 0.649 µM); in experiment [8] (18 hours), 0.06 µg/mL (≈ 0.156 µM); in experiment [8] (setting [10]) it was 0.03 µg/mL (≈ 0.0778 µM); in [1], 0.25 µg/mL (≈ 0.649 µM); in experiment [2], 0.5 µg/mL (≈ 1.3 µM); in experiment [3], 0.5 µg/mL (≈ 1.3 µM). Besides, the MIC was 16 µg/mL (≈ 41.5 µM) in experiment [4], 1 µg/mL (≈ 2.59 µM) in experiment [5], 0.12 µg/mL (≈ 0.311 µM) in experiment [6] and 4 µg/mL (≈ 10.4 µM) in experiment [7].

For `CN1CCN(c2c(F)c(F)c3c(=O)c(C(=O)O)cn(C4CC4)c3c2F)CC1` [Example 111, 1Cyclopropyl-5,6,8-trifluoro-1,4-dihydro-7-(4-methyl-1-piperazinyl) -4-oxo-3-quinolinecarboxylic acid], the MIC is 0.002 µg/mL (≈ 0.00524 µM) in the experiment with Citrobacter div. K 82-24; 0.004 µg/mL (≈ 0.0105 µM) in [1]; 0.06 µg/mL (≈ 0.157 µM) in experiment [2]; 0.008 µg/mL (≈ 0.021 µM) in experiment [3]; 4 µg/mL (≈ 10.5 µM) in experiment [4]; 0.25 µg/mL (≈ 0.656 µM) in experiment [9]. Moreover, the MIC in [5] stood at 0.25 µg/mL (≈ 0.656 µM); in experiment [6], 0.25 µg/mL (≈ 0.656 µM); in experiment [7] it was 4 µg/mL (≈ 10.5 µM).

Regarding `CCn1cc(C(=O)O)c(=O)c2cc(F)c(N3CCNC(c4ccoc4)C3)cc21` (centres unmarked) [Example 94, 1-Ethyl-6-fluoro-1,4-dihydro-4-oxo-7-[3-(3-furanyl)-1-piperazinyl]-3-quinolinecarboxylic acid], the MIC turned out to be 0.25 µg/mL (≈ 0.649 µM) in the experiment on Citrobacter div. K 82-24; 0.5 µg/mL (≈ 1.3 µM) in [8] (18 hours); 0.25 µg/mL (≈ 0.649 µM) in experiment [8] (setting [10]); 0.25 µg/mL (≈ 0.649 µM) in [1]; 1 µg/mL (≈ 2.59 µM) in experiment [2]; 0.25 µg/mL (≈ 0.649 µM) in experiment [3]. Further, the MIC in experiment [4] came to 8 µg/mL (≈ 20.8 µM); in experiment [9], 1 µg/mL (≈ 2.59 µM); in experiment [6], 0.12 µg/mL (≈ 0.311 µM); in experiment [7], 2 µg/mL (≈ 5.19 µM).

For `CCn1cc(C(=O)O)c(=O)c2cc(F)c(N3CCN(C)C(c4ccn(C)n4)C3)cc21` (centres unmarked) [Example 109, 1-Ethyl-6-fluoro-1,4-dihydro-7-[4-methyl-3-(1-methyl-1H-pyrazol-3-yl) -1-piperazinyl]-4-oxo-3-quinolinecarboxylic acid], the MIC is over 16 µg/mL in the experiment on Citrobacter div. K 82-24; 8 µg/mL (≈ 19.3 µM) in experiment [8] (setting [10]); over 16 µg/mL in [1]; over 16 µg/mL in experiment [2]; over 16 µg/mL in experiment [3]; over 128 µg/mL in [4]. The MIC was over 16 µg/mL in experiment [9], 2 µg/mL (≈ 4.84 µM) in experiment [5], 0.25 µg/mL (≈ 0.605 µM) in experiment [6] and 16 µg/mL (≈ 38.7 µM) in [7].
